Test system: IL-6 (THP-1 cells)
Assay: IL-6 inhibition in LPS-stimulated THP-1 monocytes (HTRF)
Format: cell-based
Conditions: Homo sapiens, IL-6 HTRF; for EC50: 500 ng/mL LPS, Table 6; for inhibition at 10 µM: LPS, Table 6, read-out: percent inhibition at 10 μM (given in parentheses for EC50 >10 μM)
Method: Human Monocyte Cell Culture: Human monocyte cell line (THP-1 cells; Catalog # TIB-202, ATCC, Manassas, Va.) were cultured in Roswell Park Memorial Institute (RPMI) 1640 Medium (Catalog #21870-100, Buffalo, N.Y.) with 1% L-glutamine, 1% HEPES, 1% Sodium Pyruvate, 2% Sodium Bicarbonate supplemented with 100 units/mL penicillin, 50 μg/mL streptomycin, 2-mercaptoethanol (0.05 mM) [basal medium] and 10% fetal bovine serum (Catalog #16140089, Life Technologies, Carlsbad, Calif.) at 37° C. and 5% CO2.
Compound Screening: THP-1 cells were cultured in basal media with 1% FBS for 24 hours before the start of the assay. Each compound was dissolved in DMSO as a 10 mM stock and used to prepare compound source plates. Serial dilution (1:3, 10-point dose-response curves starting from 10 μM) and compound transfer was performed using the ECHO 550 (Labcyte, Sunnyvale, Calif.) into 384-well white low volume assay plates (Greiner Bio-One) with appropriate DMSO backfill for a final DMSO concentration of 0.1%. THP-1 cells were plated at 5000 cells/well in the 384-well plates and incubated at 37° C. for 2 h. 500 ng/mL of LPS was added after 2 hours and cells were incubated for another 22 hours at 37° C. Plates were spun in a centrifuge for 1 minute at […] and a mixture of anti-IL6 XL665, and anti-IL6 Cryptate diluted in reconstitution buffer (Cisbio Inc.) was added to each well. Following incubation for 3 hrs at room temperature, Homogeneous Time-Resolved Fluorescence (HTRF) was measured using the Envision (Perkin Elmer) at 665 nm and […]. The ratio of fluorescence at 665 nm to 620 nm was used as a readout for IL6 quantification. All samples were processed in duplicate. Readings were normalized to DMSO treated cells and normalized activities were utilized for EC50 calculations using the dose-response log (inhibitor) vs. response-variable slope (four parameters) nonlinear regression feature available in GraphPad Prism 5.0 (or Dotmatics). For EC50 of >10 μM, the percent inhibition at 10 μM is provided.

Structure (SMILES) | EC50 [µM] | inhibition at 10 µM [%]
O=C(CC1CCNCC1)Nc1cncc(-c2ccc3[nH]nc(-c4nc5c(-c6ccsc6)cccc5[nH]4)c3n2)c1 [Compound 673, 2-(Piperidin-4-yl)-N-(5-(3-(4-(thiophen-3-yl)-1H-benzo[d]imidazol-2-yl)-1H-pyrazolo[4,3-b]pyridin-5-yl)pyridin-3-yl)acetamide] | > 10 | 24.8
Cc1ncc(-c2ccc3[nH]nc(-c4nc5c(-c6ccoc6)cccc5[nH]4)c3n2)n1C [Compound 685, 5-(1,2-Dimethyl-1H-imidazol-5-yl)-3-(4-(furan-3-yl)-1H-benzo[d]imidazol-2-yl)-1H-pyrazolo[4,3-b]pyridine] | 9.37 | 
c1cc(-c2ccoc2)c2nc(-c3n[nH]c4ccc(-c5cncc(OCCN6CCCC6)c5)nc34)[nH]c2c1 [Compound 690, 3-(4-(Furan-3-yl)-1H-benzo[d]imidazol-2-yl)-5-(5-(2-(pyrrolidin-1-yl)ethoxy)pyridin-3-yl)-1H-pyrazolo[4,3-b]pyridine] | 0.0939 | 
COc1cncc(-c2ccc3[nH]nc(-c4nc5c(-c6ccoc6)cccc5[nH]4)c3n2)c1 [Compound 692, 3-(4-(Furan-3-yl)-1H-benzo[d]imidazol-2-yl)-5-(5-methoxypyridin-3-yl)-1H-pyrazolo[4,3-b]pyridine] | > 10 | 53.2
Cn1cc(-c2ccc3[nH]nc(-c4nc5c(-c6cccs6)cccc5[nH]4)c3n2)cn1 [Compound 700, 5-(1-Methyl-1H-pyrazol-4-yl)-3-(4-(thiophen-2-yl)-1H-benzo[d]imidazol-2-yl)-1H-pyrazolo[4,3-b]pyridine] | > 10 | 27.4
Cc1ccc(-c2cccc3[nH]c(-c4n[nH]c5ccc(C6=CCNCC6)nc45)nc23)s1 [Compound 730, 3-(4-(5-Methylthiophen-2-yl)-1H-benzo[d]imidazol-2-yl)-5-(1,2,3,6-tetrahydropyridin-4-yl)-1H-pyrazolo[4,3-b]pyridine] | 9.16 | 
Cc1ccc(-c2cccc3[nH]c(-c4n[nH]c5ccc(-c6cncc(OC7CCCCC7)c6)nc45)nc23)s1 [Compound 735, 5-(5-(Cyclohexyloxy)pyridin-3-yl)-3-(4-(5-methylthiophen-2-yl)-1H-benzo [d]imidazol-2-yl)-1H-pyrazolo[4,3-b]pyridine] | > 10 | 38.8
Cn1cc(-c2ccc3[nH]nc(-c4nc5c(-c6cc(F)cc(CNS(C)(=O)=O)c6)cccc5[nH]4)c3n2)cn1 [Compound 764, N-(3-Fluoro-5-(2-(5-(1-methyl-1H-pyrazol-4-yl)-1H-pyrazolo[4,3-b]pyridin-3-yl)-1H-benzo[d]imidazol-4-yl)benzyl)methanesulfonamide] | 3.15 | 
CS(=O)(=O)NCc1cc(F)cc(-c2cccc3[nH]c(-c4n[nH]c5ccc(-c6cncc(NC(=O)CC7CCNCC7)c6)nc45)nc23)c1 [Compound 769, N-(5-(3-(4-(3-Fluoro-5-(methylsulfonamidomethyl)phenyl)-1H-benzo[d]imidazol-2-yl)-1H-pyrazolo[4,3-b]pyridin-5-yl)pyridin-3-yl)-2-(piperidin-4-yl)acetamide] | > 10 | 25.4
Cc1ncc(-c2ccc3[nH]nc(-c4nc5c(-c6cc(F)cc(NCCN(C)C)c6)cccc5[nH]4)c3n2)n1C [Compound 781, N^1-(3-(2-(5-(1,2-Dimethyl-1H-imidazol-5-yl)-1H-pyrazolo[4,3-b]pyridin-3-yl)-1H-benzo[d]imidazol-4-yl)-5-fluorophenyl)-N^2,N^2-dimethylethane-1,2-diamine] | 0.164 | 
CN(C)CCNc1cc(F)cc(-c2cccc3[nH]c(-c4n[nH]c5ccc(-c6cncc(OCCN7CCCC7)c6)nc45)nc23)c1 [Compound 786, N^1-(3-Fluoro-5-(2-(5-(5-(2-(pyrrolidin-1-yl)ethoxy)pyridin-3-yl)-1H-pyrazolo[4,3-b]pyridin-3-yl)-1H-benzo[d]imidazol-4-yl)phenyl)-N^2,N^2-dimethylethane-1,2-diamine] | 2.07 | 
CN(C)CCNc1cc(F)cc(-c2cccc3[nH]c(-c4n[nH]c5ccc(-c6cncc(OCc7ccccc7)c6)nc45)nc23)c1 [Compound 790, N^1-(3-(2-(5-(5-(Benzyloxy)pyridin-3-yl)-1H-pyrazolo[4,3-b]pyridin-3-yl)-1H-benzo[d]imidazol-4-yl)-5-fluorophenyl)-N^2,N^2-dimethylethane-1,2-diamine] | 3.32 | 
CN(C)CCNc1cc(F)cc(-c2cccc3[nH]c(-c4n[nH]c5ccc(-c6cnccn6)nc45)nc23)c1 [Compound 792, N^1-(3-Fluoro-5-(2-(5-(pyrazin-2-yl)-1H-pyrazolo[4,3-b]pyridin-3-yl)-1H-benzo[d]imidazol-4-yl)phenyl)-N^2,N^2-dimethylethane-1,2-diamine] | 0.686 | 
COc1cccc(-c2cccc3[nH]c(-c4n[nH]c5ccc(-c6cncc(NC(=O)CC(C)(C)C)c6)nc45)nc23)c1 [Compound 1006, N-(5-(3-(4-(3-methoxyphenyl)-1H-benzo[d]imidazol-2-yl)-1H-pyrazolo[4,3-b]pyridin-5-yl)pyridin-3-yl)-3,3-dimethylbutanamide] | > 10 | 23.8
COc1cccc(-c2cccc3[nH]c(-c4n[nH]c5ccc(-c6cncc(NC(=O)C7CCCCC7)c6)nc45)nc23)c1 [Compound 1012, N-(5-(3-(4-(3-Methoxyphenyl)-1H-benzo[d]imidazol-2-yl)-1H-pyrazolo[4,3-b]pyridin-5-yl)pyridin-3-yl)cyclohexanecarboxamide] | > 10 | 33
COc1cccc(-c2cccc3[nH]c(-c4n[nH]c5ccc(-c6cn[nH]c6)nc45)nc23)c1 [Compound 1020, 3-(4-(3-Methoxyphenyl)-1H-benzo[d]imidazol-2-yl)-5-(1H-pyrazol-4-yl)-1H-pyrazolo[4,3-b]pyridine] | > 10 | 23.7
COc1cccc(-c2cccc3[nH]c(-c4n[nH]c5ccc(-c6cncc(OC7CCNCC7)c6)nc45)nc23)c1 [Compound 1025, 3-(4-(3-Methoxyphenyl)-1H-benzo[d]imidazol-2-yl)-5-(5-(piperidin-4-yloxy)pyridin-3-yl)-1H-pyrazolo[4,3-b]pyridine] | 4.49 | 
COc1cccc(-c2cccc3[nH]c(-c4n[nH]c5ccc(-c6cncc(O)c6)nc45)nc23)c1 [Compound 1030, 5-(3-(4-(3-Methoxyphenyl)-1H-benzo[d]imidazol-2-yl)-1H-pyrazolo[4,3-b]pyridin-5-yl)pyridin-3-ol] | 0.0055 | 
NC1CN(c2cncc(-c3ccc4[nH]nc(-c5nc6c(-c7ccc(Cl)s7)cccc6[nH]5)c4n3)n2)C1 [Compound 1068, 1-(6-(3-(4-(5-Chlorothiophen-2-yl)-1H-benzo[d]imidazol-2-yl)-1H-pyrazolo [4,3-b]pyridin-5-yl)pyrazin-2-yl)azetidin-3-amine] | > 10 | 42.7
c1cc(-c2ccc3c(c2)OCO3)c2nc(-c3n[nH]c4ccc(C5CCNCC5)nc34)[nH]c2c1 [Compound 1108, 3-(4-(Benzo[d][1,3]dioxol-5-yl)-1H-benzo[d]imidazol-2-yl)-5-(piperidin-4-yl)-1H-pyrazolo[4,3-b]pyridine] | > 10 | 4.6
C1=C(c2ccc3[nH]nc(-c4nc5c(-c6ccc7c(c6)OCO7)cccc5[nH]4)c3n2)CCNC1 [Compound 1109, 3-(4-(Benzo[d][1,3]dioxol-5-yl)-1H-benzo[d]imidazol-2-yl)-5-(1,2,3,6-tetrahydropyridin-4-yl)-1H-pyrazolo[4,3-b]pyridine] | 5.87 | 
Cn1cc(-c2ccc3[nH]nc(-c4nc5c(-c6ccc(F)cc6)cccc5[nH]4)c3n2)c(CO)n1 [Compound 1129, (4-(3-(4-(4-Fluorophenyl)-1H-benzo[d]imidazol-2-yl)-1H-pyrazolo[4,3-b]pyridin-5-yl)-1-methyl-1H-pyrazol-3-yl)methanol] | 9.72 | 
Cn1cc(-c2ccc3[nH]nc(-c4nc5c(N6CCCCC6)cccc5[nH]4)c3n2)c(CO)n1 [Compound 1134, (1-Methyl-4-(3-(4-(piperidin-1-yl)-1H-benzo[d]imidazol-2-yl)-1H-pyrazolo [4,3-b]pyridin-5-yl)-1H-pyrazol-3-yl)methanol] | > 10 | 28.3
Cn1cc(-c2ccc3[nH]nc(-c4nc5c(-c6ccc7c(c6)OCO7)cccc5[nH]4)c3n2)c(CO)n1 [Compound 1152, (4-(3-(4-(Benzo[d][1,3]dioxol-5-yl)-1H-benzo[d]imidazol-2-yl)-1H-pyrazolo[4,3-b]pyridin-5-yl)-1-methyl-1H-pyrazol-3-yl)methanol] | > 10 | 23.3

From patent publication US10392383B2, “3-(1H-benzo[d]imidazol-2-yl)-1H-pyrazolo[4,3-b]pyridines and therapeutic uses thereof” (Samumed, LLC, priority 2015, dated 2019)
